According to PubChem BioAssay AID2060884 (Molecular Pharmacology Branch, DTP, NCI, 2025):
pIC50: −log10 of the molar value. Where “and” joins values, the source holds several entries; their conditions need not be identical. Equal entries are not always repeated. Each block holds one compound with its values, some of them ahead of it.

System: NCI-H929 complex spheroids, viability % test/control
Assay: Anticancer human tumor NCI-H929 cell line growth inhibition [RAS];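 further: compound exposure lasted seven days before viability was read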;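 on viability, T/C: 100% = DMSO vehicle control viability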
Conditions: for viability, T/C: stronger effect = lower value
Method in brief: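 Multi-cell-type spheroids: tumor cells plus HUVEC endothelial cells and mesenchymal stem cells. RAS-pathway inhibitors were combined with targeted agents, each dosed in half-log steps down from clinical Cmax, or from 10 microM when Cmax was unknown.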

[1] = curve of first compound, second compound 0.000949 µM
[2] = curve of first compound, second compound 0.003 µM
[3] = curve of first compound, second compound 0.00949 µM
[4] = curve of first compound, second compound 0.03 µM
[5] = curve of first compound, second compound 0.0949 µM
[6] = curve of first compound, second compound 0.3 µM
[7] = second compound 0.000949 µM, first compound 0.00316 µM
[8] = second compound 0.000949 µM, first compound 0.01 µM
[9] = second compound 0.000949 µM, first compound 0.0316 µM
[10] = second compound 0.000949 µM, first compound 0.1 µM
[11] = second compound 0.000949 µM, first compound 0.316 µM
[12] = second compound 0.000949 µM, first compound 1 µM
[13] = second compound 0.003 µM, first compound 0.00316 µM
[14] = second compound 0.003 µM, first compound 0.01 µM
[15] = second compound 0.003 µM, first compound 0.0316 µM
[16] = second compound 0.003 µM, first compound 0.1 µM
[17] = second compound 0.003 µM, first compound 0.316 µM
[18] = second compound 0.003 µM, first compound 1 µM
[19] = second compound 0.00949 µM, first compound 0.00316 µM
[20] = second compound 0.00949 µM, first compound 0.01 µM
[21] = second compound 0.00949 µM, first compound 0.0316 µM
[22] = second compound 0.00949 µM, first compound 0.1 µM
[23] = second compound 0.00949 µM, first compound 0.316 µM
[24] = second compound 0.00949 µM, first compound 1 µM
[25] = second compound 0.03 µM, first compound 0.00316 µM
[26] = second compound 0.03 µM, first compound 0.01 µM
[27] = second compound 0.03 µM, first compound 0.0316 µM
[28] = second compound 0.03 µM, first compound 0.1 µM
[29] = second compound 0.03 µM, first compound 0.316 µM
[30] = second compound 0.03 µM, first compound 1 µM
[31] = second compound 0.0949 µM, first compound 0.00316 µM
[32] = second compound 0.0949 µM, first compound 0.01 µM
[33] = second compound 0.0949 µM, first compound 0.0316 µM
[34] = second compound 0.0949 µM, first compound 0.1 µM
[35] = second compound 0.0949 µM, first compound 0.316 µM
[36] = second compound 0.0949 µM, first compound 1 µM
[37] = second compound 0.3 µM, first compound 0.00316 µM
[38] = second compound 0.3 µM, first compound 0.01 µM
[39] = second compound 0.3 µM, first compound 0.0316 µM
[40] = second compound 0.3 µM, first compound 0.1 µM
[41] = second compound 0.3 µM, first compound 0.316 µM
[42] = second compound 0.3 µM, first compound 1 µM

SMILES: CC(=O)OC12COC1CC(O)C1(C)C(=O)C(O)C3=C(C)C(OC(=O)C(O)C(NC(=O)OC(C)(C)C)c4ccccc4)CC(O)(C(OC(=O)c4ccccc4)C21)C3(C)C (centres undefined)
- viability, T/C (compound 0.0316 µM): 1.05% [middle of 4 runs]
- viability, T/C (compound 0.1 µM): 1.29% [middle of 4 runs]
- viability, T/C (compound 0.316 µM): 1.47% [middle of 4 runs]
- viability, T/C (compound 1 µM): 1.41% [middle of 4 runs]
- viability, T/C (compound 3.16 µM): 1.6% [middle of 4 runs]
- viability, T/C (compound 10 µM): 0.8% [middle of 4 runs]
- pIC50 (curve of compound): > 7.50

SMILES: CC1(O)CCCC1n1c(=O)c(C(F)F)cc2cnc(NC3CCN(S(C)(=O)=O)CC3)nc21 (centres undefined)
- viability, T/C (compound 0.0316 µM): 116% and 105% and 113% (2×)
- viability, T/C (compound 0.316 µM): 4.47% [middle of 4 runs]
- viability, T/C (compound 1 µM): 9.4% [middle of 4 runs]
- viability, T/C (compound 3.16 µM): 2.17% [middle of 4 runs]
- viability, T/C (compound 10 µM): 0.2% and 0.16% and 0.08%
- IC50 (curve of compound): 189 nM [middle of 4 runs]

SMILES: CC1(O)CCCC1n1c(=O)c(C(F)F)cc2cnc(NC3CCN(S(C)(=O)=O)CC3)nc21 (centres undefined) + C=CC(=O)N1CCN(c2nc(OCC3CCCN3C)nc3c(F)c(-c4nc(N)cc(C)c4C(F)(F)F)c(Cl)cc23)C(C)C1
- pIC50 (curve of first compound, second compound 0.00316 µM): 6.74
- pIC50 (curve of first compound, second compound 0.01 µM): 6.72
- pIC50 (curve of first compound, second compound 0.0316 µM): 6.72
- pIC50 (curve of first compound, second compound 0.1 µM): 6.72
- pIC50 (curve of first compound, second compound 0.316 µM): 6.74
- pIC50 (curve of first compound, second compound 1 µM): 6.74
- viability, T/C (second compound 0.00316 µM, first compound 0.0316 µM): 115%
- viability, T/C (second compound 0.00316 µM, first compound 0.1 µM): 101%
- viability, T/C (second compound 0.00316 µM, first compound 0.316 µM): 4.56%
- viability, T/C (second compound 0.00316 µM, first compound 1 µM): 8.72%
- viability, T/C (second compound 0.00316 µM, first compound 3.16 µM): 2.59%
- viability, T/C (second compound 0.00316 µM, first compound 10 µM): 0.82%
- viability, T/C (second compound 0.01 µM, first compound 0.0316 µM): 112%
- viability, T/C (second compound 0.01 µM, first compound 0.1 µM): 108%
- viability, T/C (second compound 0.01 µM, first compound 0.316 µM): 3.89%
- viability, T/C (second compound 0.01 µM, first compound 1 µM): 8.77%
- viability, T/C (second compound 0.01 µM, first compound 3.16 µM): 3.05%
- viability, T/C (second compound 0.01 µM, first compound 10 µM): 0.57%
- viability, T/C (second compound 0.0316 µM, first compound 0.0316 µM): 107%
- viability, T/C (second compound 0.0316 µM, first compound 0.1 µM): 107%
- viability, T/C (second compound 0.0316 µM, first compound 0.316 µM): 3.77%
- viability, T/C (second compound 0.0316 µM, first compound 1 µM): 9.13%
- viability, T/C (second compound 0.0316 µM, first compound 3.16 µM): 2.62%
- viability, T/C (second compound 0.0316 µM, first compound 10 µM): 0.19%
- viability, T/C (second compound 0.1 µM, first compound 0.0316 µM): 109%
- viability, T/C (second compound 0.1 µM, first compound 0.1 µM): 109%
- viability, T/C (second compound 0.1 µM, first compound 0.316 µM): 4.89%
- viability, T/C (second compound 0.1 µM, first compound 1 µM): 8.17%
- viability, T/C (second compound 0.1 µM, first compound 3.16 µM): 2.43%
- viability, T/C (second compound 0.1 µM, first compound 10 µM): 0.18%
- viability, T/C (second compound 0.316 µM, first compound 0.0316 µM): 113%
- viability, T/C (second compound 0.316 µM, first compound 0.1 µM): 101%
- viability, T/C (second compound 0.316 µM, first compound 0.316 µM): 4.58%
- viability, T/C (second compound 0.316 µM, first compound 1 µM): 9.4%
- viability, T/C (second compound 0.316 µM, first compound 3.16 µM): 2.18%
- viability, T/C (second compound 0.316 µM, first compound 10 µM): 0.46%
- viability, T/C (second compound 1 µM, first compound 0.0316 µM): 121%
- viability, T/C (second compound 1 µM, first compound 0.1 µM): 99.8%
- viability, T/C (second compound 1 µM, first compound 0.316 µM): 4.25%
- viability, T/C (second compound 1 µM, first compound 1 µM): 7.11%
- viability, T/C (second compound 1 µM, first compound 3.16 µM): 2.09%
- viability, T/C (second compound 1 µM, first compound 10 µM): 0.13%

Now from value to compound, other results behind:

- pIC50 [1]: 6.11
- pIC50 [2]: 6.13
- pIC50 [3]: 6.09
- pIC50 [4]: 6.13
- pIC50 [5]: 6.18
- pIC50 [6]: 6.21
SMILES: CCN1CCN(Cc2ccc(Nc3ncc(F)c(-c4cc(F)c5nc(C)n(C(C)C)c5c4)n3)nc2)CC1 + CCn1c(-c2cccnc2C(C)OC)c2c3cc(ccc31)N1CCOC(CC(NC(=O)C(C(C)C)N(C)C(=O)C3(F)CCN(C(=O)C#CC(C)(C)N(C)C)CC3)C(=O)N3CCCC(N3)C(=O)OCC(C)(C)C2)C1
- viability, T/C [7]: 105%
- viability, T/C [8]: 97.9%
- viability, T/C [9]: 105%
- viability, T/C [10]: 101%
- viability, T/C [11]: 104%
- viability, T/C [12]: 35.1%
- viability, T/C [13]: 103%
- viability, T/C [14]: 101%
- viability, T/C [15]: 103%
- viability, T/C [16]: 105%
- viability, T/C [17]: 106%
- viability, T/C [18]: 31.7%
- viability, T/C [19]: 96.8%
- viability, T/C [20]: 104%
- viability, T/C [21]: 99.9%
- viability, T/C [22]: 104%
- viability, T/C [23]: 107%
- viability, T/C [24]: 38.6%
- viability, T/C [25]: 97.4%
- viability, T/C [26]: 101%
- viability, T/C [27]: 106%
- viability, T/C [28]: 101%
- viability, T/C [29]: 108%
- viability, T/C [30]: 30.8%
- viability, T/C [31]: 99.4%
- viability, T/C [32]: 99.5%
- viability, T/C [33]: 102%
- viability, T/C [34]: 103%
- viability, T/C [35]: 104%
- viability, T/C [36]: 21.2%
- viability, T/C [37]: 98.7%
- viability, T/C [38]: 104%
- viability, T/C [39]: 105%
- viability, T/C [40]: 106%
- viability, T/C [41]: 109%
- viability, T/C [42]: 11.2%

- pIC50 [1]: 6.18
- pIC50 [2]: 6.16
- pIC50 [3]: 6.16
- pIC50 [4]: 6.18
- pIC50 [5]: 6.20
- pIC50 [6]: 6.22
SMILES: O=C(c1ccc(F)c(F)c1Nc1ccc(I)cc1F)N1CC(O)([C@@H]2CCCCN2)C1 + CCn1c(-c2cccnc2C(C)OC)c2c3cc(ccc31)N1CCOC(CC(NC(=O)C(C(C)C)N(C)C(=O)C3(F)CCN(C(=O)C#CC(C)(C)N(C)C)CC3)C(=O)N3CCCC(N3)C(=O)OCC(C)(C)C2)C1
- viability, T/C [7]: 109%
- viability, T/C [8]: 97.9%
- viability, T/C [9]: 103%
- viability, T/C [10]: 92.5%
- viability, T/C [11]: 98.3%
- viability, T/C [12]: 23.2%
- viability, T/C [13]: 99.2%
- viability, T/C [14]: 102%
- viability, T/C [15]: 101%
- viability, T/C [16]: 93.7%
- viability, T/C [17]: 98.4%
- viability, T/C [18]: 26.8%
- viability, T/C [19]: 97.2%
- viability, T/C [20]: 102%
- viability, T/C [21]: 104%
- viability, T/C [22]: 95.1%
- viability, T/C [23]: 101%
- viability, T/C [24]: 25.5%
- viability, T/C [25]: 98.6%
- viability, T/C [26]: 100%
- viability, T/C [27]: 102%
- viability, T/C [28]: 96.9%
- viability, T/C [29]: 101%
- viability, T/C [30]: 21.8%
- viability, T/C [31]: 96.6%
- viability, T/C [32]: 99.7%
- viability, T/C [33]: 101%
- viability, T/C [34]: 98.4%
- viability, T/C [35]: 103%
- viability, T/C [36]: 17.7%
- viability, T/C [37]: 100%
- viability, T/C [38]: 101%
- viability, T/C [39]: 101%
- viability, T/C [40]: 100%
- viability, T/C [41]: 105%
- viability, T/C [42]: 8.18%
